Test results published in ChEMBL document CHEMBL3400015, “Tertiary amides of Salinomycin: A new group of antibacterial agents against Bacillus anthracis and methicillin-resistant Staphylococcus epidermidis” (Bioorg Med Chem Lett, 2015).

Experiments:
[1] = system: Staphylococcus epidermidis; experiment: Bactericidal activity against methicillin-resistant Staphylococcus epidermidis isolate 422/10 after 24 hrs; type: functional; settings: isolate 422/10, 24 h, read-out: MBC99.9
Staphylococcus aureus [2] = experiment: Antimicrobial activity against Staphylococcus aureus ATCC 25923 after 18 hrs by twofold serial broth dilution method; type: functional; settings: ATCC 25923, 18 h
Escherichia coli [3] = experiment: Bactericidal activity against Escherichia coli NCTC 8196 after 24 hrs; type: functional; settings: NCTC 8196, 24 h, read-out: MBC99.9
Escherichia coli [4] = experiment: Bactericidal activity against Escherichia coli ATCC 10538 after 24 hrs; type: functional; settings: ATCC 10538, 24 h, read-out: MBC99.9
[5] = system: Staphylococcus epidermidis; experiment: Bactericidal activity against methicillin-resistant Staphylococcus epidermidis isolate 454/11 after 24 hrs; type: functional; settings: isolate 454/11, 24 h, read-out: MBC99.9
Escherichia coli [6] = experiment: Bactericidal activity against Escherichia coli ATCC 25922 after 24 hrs; type: functional; settings: ATCC 25922, 24 h, read-out: MBC99.9
Escherichia coli [7] = experiment: Antimicrobial activity against Escherichia coli ATCC 10538 after 18 hrs by twofold serial broth dilution method; type: functional; settings: ATCC 10538, 18 h
Staphylococcus aureus [8] = experiment: Bactericidal activity against Staphylococcus aureus ATCC 25923 after 24 hrs; type: functional; settings: ATCC 25923, 24 h, read-out: MBC99.9
[9] = system: Staphylococcus epidermidis; experiment: Bactericidal activity against methicillin-resistant Staphylococcus epidermidis isolate 409/10 after 24 hrs; type: functional; settings: isolate 409/10, 24 h, read-out: MBC99.9
[10] = system: Staphylococcus epidermidis; experiment: Antimicrobial activity against methicillin-resistant Staphylococcus epidermidis isolate 459/11 after 18 hrs by twofold serial broth dilution method; type: functional; settings: isolate 459/11, 18 h
[11] = system: Staphylococcus epidermidis; experiment: Antimicrobial activity against methicillin-resistant Staphylococcus epidermidis isolate 424/10 after 18 hrs by twofold serial broth dilution method; type: functional; settings: isolate 424/10, 18 h
[12] = system: Staphylococcus epidermidis; experiment: Antimicrobial activity against methicillin-resistant Staphylococcus epidermidis isolate 422/10 after 18 hrs by twofold serial broth dilution method; type: functional; settings: isolate 422/10, 18 h
[13] = system: Staphylococcus epidermidis; experiment: Bactericidal activity against methicillin-resistant Staphylococcus epidermidis isolate 405/10 after 24 hrs; type: functional; settings: isolate 405/10, 24 h, read-out: MBC99.9
Bacillus anthracis = experiment: Antimicrobial activity against Bacillus anthracis 34F2 after 18 hrs by twofold serial broth dilution method; type: functional; settings: 34F2, 18 h
[14] = system: Staphylococcus epidermidis; experiment: Bactericidal activity against methicillin-resistant Staphylococcus epidermidis isolate 424/10 after 24 hrs; type: functional; settings: isolate 424/10, 24 h, read-out: MBC99.9
Pseudomonas aeruginosa [15] = experiment: Antimicrobial activity against Pseudomonas aeruginosa NCTC 6749 after 18 hrs by twofold serial broth dilution method; type: functional; settings: NCTC 6749, 18 h
[16] = system: Staphylococcus epidermidis; experiment: Antimicrobial activity against methicillin-resistant Staphylococcus epidermidis isolate 455/11 after 18 hrs by twofold serial broth dilution method; type: functional; settings: isolate 455/11, 18 h
[17] = system: Staphylococcus epidermidis; experiment: Antimicrobial activity against methicillin-resistant Staphylococcus epidermidis isolate 469/11 after 18 hrs by twofold serial broth dilution method; type: functional; settings: isolate 469/11, 18 h
[18] = system: Staphylococcus epidermidis; experiment: Antimicrobial activity against Staphylococcus epidermidis ATCC 35984 after 18 hrs by twofold serial broth dilution method; type: functional; settings: ATCC 35984, 18 h
Bacillus subtilis [19] = experiment: Genotoxicity in rec-positive Bacillus subtilis H17 at 2 ug/9 mm disc after 24 hrs by disc diffusion method; type: toxicity, organism-based
Staphylococcus aureus [20] = experiment: Antimicrobial activity against Staphylococcus aureus […] after 18 hrs by twofold serial broth dilution method; type: functional
[21] = system: Staphylococcus epidermidis; experiment: Bactericidal activity against methicillin-resistant Staphylococcus epidermidis isolate 469/11 after 24 hrs; type: functional; settings: isolate 469/11, 24 h, read-out: MBC99.9
[22] = system: Staphylococcus epidermidis; experiment: Antimicrobial activity against methicillin-resistant Staphylococcus epidermidis isolate 404/10 after 18 hrs by twofold serial broth dilution method; type: functional; settings: isolate 404/10, 18 h
[23] = system: Staphylococcus epidermidis; experiment: Antimicrobial activity against methicillin-resistant Staphylococcus epidermidis isolate 470/11 after 18 hrs by twofold serial broth dilution method; type: functional; settings: isolate 470/11, 18 h
[24] = system: Staphylococcus epidermidis; experiment: Antimicrobial activity against methicillin-resistant Staphylococcus epidermidis isolate 461/11 after 18 hrs by twofold serial broth dilution method; type: functional; settings: isolate 461/11, 18 h
[25] = system: Staphylococcus epidermidis; experiment: Bactericidal activity against methicillin-resistant Staphylococcus epidermidis isolate 455/11 after 24 hrs; type: functional; settings: isolate 455/11, 24 h, read-out: MBC99.9
[26] = system: Staphylococcus epidermidis; experiment: Antimicrobial activity against methicillin-resistant Staphylococcus epidermidis isolate 454/11 after 18 hrs by twofold serial broth dilution method; type: functional; settings: isolate 454/11, 18 h
Pseudomonas aeruginosa [27] = experiment: Antimicrobial activity against Pseudomonas aeruginosa ATCC 15442 after 18 hrs by twofold serial broth dilution method; type: functional; settings: ATCC 15442, 18 h
[28] = system: Staphylococcus epidermidis; experiment: Antimicrobial activity against methicillin-resistant Staphylococcus epidermidis isolate 457/11 after 18 hrs by twofold serial broth dilution method; type: functional; settings: isolate 457/11, 18 h
Staphylococcus aureus [29] = experiment: Bactericidal activity against Staphylococcus aureus ATCC 6538 after 24 hrs; type: functional; settings: ATCC 6538, 24 h, read-out: MBC99.9
[30] = system: Staphylococcus epidermidis; experiment: Antimicrobial activity against methicillin-resistant Staphylococcus epidermidis isolate 403/10 after 18 hrs by twofold serial broth dilution method; type: functional; settings: isolate 403/10, 18 h
[31] = system: Staphylococcus epidermidis; experiment: Bactericidal activity against methicillin-resistant Staphylococcus epidermidis isolate 460/11 after 24 hrs; type: functional; settings: isolate 460/11, 24 h, read-out: MBC99.9
[32] = system: Staphylococcus epidermidis; experiment: Antimicrobial activity against methicillin-resistant Staphylococcus epidermidis isolate 409/10 after 18 hrs by twofold serial broth dilution method; type: functional; settings: isolate 409/10, 18 h
Staphylococcus aureus [33] = experiment: Antimicrobial activity against Staphylococcus aureus ATCC 6538 after 18 hrs by twofold serial broth dilution method; type: functional; settings: ATCC 6538, 18 h
Pseudomonas aeruginosa [34] = experiment: Bactericidal activity against Pseudomonas aeruginosa ATCC 27853 after 24 hrs; type: functional; settings: ATCC 27853, 24 h, read-out: MBC99.9
Staphylococcus aureus [35] = experiment: Bactericidal activity against Staphylococcus aureus […] after 24 hrs; type: functional; settings: read-out: MBC99.9
Bacillus subtilis [36] = experiment: Genotoxicity in rec-negative Bacillus subtilis M45 at 2 ug/9 mm disc after 24 hrs by disc diffusion method; type: toxicity, organism-based
[37] = system: Staphylococcus epidermidis; experiment: Bactericidal activity against Staphylococcus epidermidis ATCC 35984 after 24 hrs; type: functional; settings: ATCC 35984, 24 h, read-out: MBC99.9
[38] = system: Staphylococcus epidermidis; experiment: Bactericidal activity against methicillin-resistant Staphylococcus epidermidis isolate 403/10 after 24 hrs; type: functional; settings: isolate 403/10, 24 h, read-out: MBC99.9
Escherichia coli [39] = experiment: Antimicrobial activity against Escherichia coli NCTC 8196 after 18 hrs by twofold serial broth dilution method; type: functional; settings: NCTC 8196, 18 h
[40] = system: Staphylococcus epidermidis; experiment: Antimicrobial activity against methicillin-resistant Staphylococcus epidermidis isolate 405/10 after 18 hrs by twofold serial broth dilution method; type: functional; settings: isolate 405/10, 18 h
Pseudomonas aeruginosa [41] = experiment: Bactericidal activity against Pseudomonas aeruginosa ATCC 15442 after 24 hrs; type: functional; settings: ATCC 15442, 24 h, read-out: MBC99.9
[42] = system: Staphylococcus epidermidis; experiment: Bactericidal activity against methicillin-resistant Staphylococcus epidermidis isolate 404/10 after 24 hrs; type: functional; settings: isolate 404/10, 24 h, read-out: MBC99.9

CC[C@@H](C(=O)[C@@H](C)[C@@H](O)[C@H](C)[C@@H]1O[C@@H]([C@@H](CC)C(=O)N2CCNCC2)CC[C@@H]1C)[C@H]1O[C@]2(C=C[C@@H](O)[C@]3(CC[C@@](C)([C@H]4CC[C@](O)(CC)[C@H](C)O4)O3)O2)[C@H](C)C[C@@H]1C
64 µg/mL: MIC [10] | MIC [11] | MIC (Bacillus anthracis) | MIC [22] | MIC (Staphylococcus aureus [33]) | MIC [40]
14 mm: diameter of the inhibition zone (DIZ) (Bacillus subtilis [19]) | diameter of the inhibition zone (DIZ) (Bacillus subtilis [36])
128 µg/mL: MIC (Staphylococcus aureus [2]) | MIC [12] | MIC [17] | MIC [18] | MIC (Staphylococcus aureus [20]) | MIC [26] | MIC [30] | MIC [32]
256 µg/mL: MIC [16] | MIC [23] | MIC [24] | MIC [28] | MBC [42]
> 256 µg/mL: MBC [1] | MBC (Escherichia coli [3]) | MBC (Escherichia coli [4]) | MBC [5] | MBC (Escherichia coli [6]) | MIC (Escherichia coli [7]) | MBC (Staphylococcus aureus [8]) | MBC [9] | MBC [13] | MBC [14] | MIC (Pseudomonas aeruginosa [15]) | MBC [21] | MBC [25] | MIC (Pseudomonas aeruginosa [27]) | MBC (Staphylococcus aureus [29]) | MBC [31] | MBC (Pseudomonas aeruginosa [34]) | MBC (Staphylococcus aureus [35]) | MBC [37] | MBC [38] | MIC (Escherichia coli [39]) | MBC (Pseudomonas aeruginosa [41])
